# Activity calls are given as the source filed them. The calls are words filed in the database; no cut-off is given here.
# Columns and labels:
# [1] = target: T1, Protein cereblon/Hematopoietic prostaglandin D synthase (Homo sapiens, UniProt O60760+Q96SW2); experiment: PROTAC activity at H-PGDS/CRBN in human KU812 cells assessed as H-PGDS degradation measured after 6 hrs by Western blot analysis; type: cell-based; conditions: for DC50: ku812 cell line
# [2] = target: Hematopoietic prostaglandin D synthase (Homo sapiens, UniProt O60760); experiment: Inhibition of H-PGDS (unknown origin) using fluorescent probe by competition binding assay
# KU812 [3] = experiment: Suppression of PGD2 production in human KU812 cells measured in presence of compound 43 up to 3000 pM incubated for 6 hrs by LC-MS analysis; type: functional, cell-based
# [4] = target: T1, Protein cereblon/Hematopoietic prostaglandin D synthase; experiment: PROTAC activity at H-PGDS/CRBN in human KU812 cells assessed as H-PGDS degradation measured after 24 hrs by Western blot analysis; type: cell-based; conditions: KU812 cell line
# Target sequence in this assay (O60760 whole entry, looked up): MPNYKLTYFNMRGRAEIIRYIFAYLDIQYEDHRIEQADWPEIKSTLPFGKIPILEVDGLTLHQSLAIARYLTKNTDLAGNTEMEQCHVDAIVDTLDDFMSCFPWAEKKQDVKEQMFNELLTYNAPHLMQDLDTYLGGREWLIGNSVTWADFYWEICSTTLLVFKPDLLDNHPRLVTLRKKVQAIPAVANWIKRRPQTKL
# Target sequence in this assay (Q96SW2 whole entry, looked up): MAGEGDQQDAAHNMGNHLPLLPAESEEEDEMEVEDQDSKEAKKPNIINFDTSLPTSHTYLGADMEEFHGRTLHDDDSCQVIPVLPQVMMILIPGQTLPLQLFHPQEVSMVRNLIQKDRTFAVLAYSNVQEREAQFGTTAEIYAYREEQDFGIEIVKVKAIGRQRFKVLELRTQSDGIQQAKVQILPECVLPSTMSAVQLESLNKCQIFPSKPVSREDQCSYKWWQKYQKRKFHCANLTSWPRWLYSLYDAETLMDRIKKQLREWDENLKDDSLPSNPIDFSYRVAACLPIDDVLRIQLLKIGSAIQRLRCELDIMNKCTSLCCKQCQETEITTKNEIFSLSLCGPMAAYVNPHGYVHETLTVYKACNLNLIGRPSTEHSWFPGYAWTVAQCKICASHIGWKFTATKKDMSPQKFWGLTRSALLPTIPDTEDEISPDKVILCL
# [5] = target: T1, Protein cereblon/Hematopoietic prostaglandin D synthase; experiment: PROTAC activity at H-PGDS/CRBN in human KU812 cells assessed as H-PGDS degradation in presence of MLN7243 at 100 pM measured after 6 hrs by Western blot analysis; type: cell-based; conditions: KU812 cell line
# Target sequence in this assay (O60760 whole entry, looked up): as the sequence (O60760 whole entry, looked up) above
# Target sequence in this assay (Q96SW2 whole entry, looked up): as the sequence (Q96SW2 whole entry, looked up) above
# [6] = target: T1, Protein cereblon/Hematopoietic prostaglandin D synthase; experiment: PROTAC activity at H-PGDS/CRBN in human KU812 cells assessed as reduction in H-PGDS level at 100 pM measured after 6 hrs by Western blot analysis relative to control; type: cell-based; parameters: scale not given: the % may be the effect or the level left; conditions: KU812 cell line
# Target sequence in this assay (O60760 whole entry, looked up): as the sequence (O60760 whole entry, looked up) above
# Target sequence in this assay (Q96SW2 whole entry, looked up): as the sequence (Q96SW2 whole entry, looked up) above
# [7] = target: T1, Protein cereblon/Hematopoietic prostaglandin D synthase; experiment: PROTAC activity at H-PGDS/CRBN in human MEG01s cells assessed as H-PGDS degradation measured after 6 to 24 hrs by Western blot analysis; type: cell-based; conditions: time 6-24 hrs
# Target sequence in this assay (O60760 whole entry, looked up): as the sequence (O60760 whole entry, looked up) above
# Target sequence in this assay (Q96SW2 whole entry, looked up): as the sequence (Q96SW2 whole entry, looked up) above
# [8] = target: T1, Protein cereblon/Hematopoietic prostaglandin D synthase; experiment: PROTAC activity at H-PGDS/CRBN in human KU812 cells assessed as H-PGDS degradation in presence of pomalidomide measured after 6 hrs by Western blot analysis; type: cell-based; conditions: KU812 cell line
# Target sequence in this assay (O60760 whole entry, looked up): as the sequence (O60760 whole entry, looked up) above
# Target sequence in this assay (Q96SW2 whole entry, looked up): as the sequence (Q96SW2 whole entry, looked up) above
# KU812 [9] = experiment: Effect on H-PGDS mRNA level in human KU812 cells measured up to 10000 pM incubated for 6 hrs by quantitative RT-PCR analysis; type: functional, cell-based
# [10] = target: T1, Protein cereblon/Hematopoietic prostaglandin D synthase; experiment: PROTAC activity at H-PGDS/CRBN in human KU812 cells assessed as reduction in H-PGDS level at 10 pM measured after 6 hrs by Western blot analysis relative to control; type: cell-based; parameters: scale not given: the % may be the effect or the level left; conditions: KU812 cell line
# Target sequence in this assay (O60760 whole entry, looked up): as the sequence (O60760 whole entry, looked up) above
# Target sequence in this assay (Q96SW2 whole entry, looked up): as the sequence (Q96SW2 whole entry, looked up) above
# [11] = target: T1, Protein cereblon/Hematopoietic prostaglandin D synthase; experiment: PROTAC activity at H-PGDS/CRBN in human KU812 cells assessed as H-PGDS degradation in presence of MG132 at 100 pM measured after 6 hrs by Western blot analysis; type: cell-based; conditions: KU812 cell line
# Chain of Hematopoietic prostaglandin D synthase (O60760 whole entry): as the sequence (O60760 whole entry, looked up) above
SMILES,inhibition [2],DC50 [1] [nM],IC50 [2] [nM],Activity (KU812 [3]),other results
O=C1CCC(N2C(=O)c3cccc(NCCNC(=O)C4CCN(c5ccc(NC(=O)c6cnc(Oc7ccccc7)nc6)cc5)CC4)c3C2=O)C(=O)N1 (stereo not given),inactive,–,–,–,–
O=C(Nc1ccc(N2CCC(C(=O)N3CCOCC3)CC2)cc1)c1cnc(Oc2ccccc2)nc1,–,–,170,Active,–
Nc1cccc2c1C(=O)N(C1CCC(=O)NC1=O)C2=O (stereo not given),–,–,–,inactive,–

# More lines, main results first:
inhibition [2],DC50 [1] [nM],IC50 [2] [nM],SMILES,Activity (KU812 [3]),other results
inactive,–,–,O=C1CCC(N2C(=O)c3cccc(N4CCN(c5ccc(NC(=O)c6cnc(Oc7ccccc7)nc6)cc5)CC4)c3C2=O)C(=O)N1 (stereo not given),–,Activity ([1]; KU812 cell line): inactive
–,0.024,140,CN1C(=O)CCC(N2C(=O)c3cccc(N4CCN(C(=O)C5CCN(c6ccc(NC(=O)c7cnc(Oc8ccccc8)nc7)cc6)CC5)CC4)c3C2=O)C1=O (stereo not given),Active,–
–,0.0173,170,O=C1CCC(N2C(=O)c3cccc(N4CCN(C(=O)C5CCN(c6ccc(NC(=O)c7cnc(Oc8ccccc8)nc7)cc6)CC5)CC4)c3C2=O)C(=O)N1 (stereo not given),Active,Activity [4]: inactive; Activity [5]: inactive; Activity [6]: 30.8%; Activity [7]: Active; Activity [8]: inactive; Activity (KU812 [9]): inactive; Activity [10]: 12.9%; Activity [11]: inactive

# Reference: ChEMBL document CHEMBL5055658, “Discovery of a Highly Potent and Selective Degrader Targeting Hematopoietic Prostaglandin D Synthase via In Silico Design” (J Med Chem, 2021)
